Assay results reported in ChEMBL document CHEMBL2021828, “An approach for differentiating isozymes. Construction of libraries containing short aromatic peptides as part of a method to design selective inhibitors against lipases” (Bioorg Med Chem Lett, 2012).
Calls of active or inactive are those of the source. The calls are words filed in the database; no cut-off is given here.

Columns and labels:
[1] = system: Chromobacterium viscosum; test: Activity of Chromobacterium viscosum lipase using p-nitrophenylbutyrate as substrate by Lineweaver-Burk plot analysis
[2] = molecular target: T1, Lipase (Thermomyces lanuginosus) (UniProt O59952); test: Activity of Thermomyces lanuginosus lipase using p-nitrophenylbutyrate as substrate by Lineweaver-Burk plot analysis
T1 sequence (whole entry): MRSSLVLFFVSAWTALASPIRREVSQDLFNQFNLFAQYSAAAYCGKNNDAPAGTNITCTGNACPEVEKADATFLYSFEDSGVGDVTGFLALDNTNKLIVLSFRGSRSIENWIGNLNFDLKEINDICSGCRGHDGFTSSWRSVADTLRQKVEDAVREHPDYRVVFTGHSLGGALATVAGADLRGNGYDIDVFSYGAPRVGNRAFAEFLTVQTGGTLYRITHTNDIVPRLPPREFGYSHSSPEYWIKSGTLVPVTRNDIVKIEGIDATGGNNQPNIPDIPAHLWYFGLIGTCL

[3] = molecular target: T2, Pancreatic triacylglycerol lipase (Homo sapiens) (UniProt P16233); test: Activity of human pancreatic lipase using p-nitrophenylbutyrate as substrate by Lineweaver-Burk plot analysis
T2 sequence (whole entry): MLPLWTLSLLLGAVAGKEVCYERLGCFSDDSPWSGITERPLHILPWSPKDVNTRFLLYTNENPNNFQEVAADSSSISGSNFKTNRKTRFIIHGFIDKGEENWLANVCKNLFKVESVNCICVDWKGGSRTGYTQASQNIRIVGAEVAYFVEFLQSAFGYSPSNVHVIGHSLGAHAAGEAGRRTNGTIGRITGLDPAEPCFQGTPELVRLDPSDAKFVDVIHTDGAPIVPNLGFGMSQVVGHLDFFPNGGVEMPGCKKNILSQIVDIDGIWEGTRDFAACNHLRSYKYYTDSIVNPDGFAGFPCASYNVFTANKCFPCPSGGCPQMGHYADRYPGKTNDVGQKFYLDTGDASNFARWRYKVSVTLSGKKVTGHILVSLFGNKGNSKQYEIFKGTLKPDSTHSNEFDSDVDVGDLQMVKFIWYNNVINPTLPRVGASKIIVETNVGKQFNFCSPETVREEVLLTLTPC

[4] = molecular target: T3, Pancreatic triacylglycerol lipase (Sus scrofa) (UniProt P00591); test: Activity of porcine pancreatic lipase using p-nitrophenylbutyrate as substrate by Lineweaver-Burk plot analysis
T3 sequence (whole entry): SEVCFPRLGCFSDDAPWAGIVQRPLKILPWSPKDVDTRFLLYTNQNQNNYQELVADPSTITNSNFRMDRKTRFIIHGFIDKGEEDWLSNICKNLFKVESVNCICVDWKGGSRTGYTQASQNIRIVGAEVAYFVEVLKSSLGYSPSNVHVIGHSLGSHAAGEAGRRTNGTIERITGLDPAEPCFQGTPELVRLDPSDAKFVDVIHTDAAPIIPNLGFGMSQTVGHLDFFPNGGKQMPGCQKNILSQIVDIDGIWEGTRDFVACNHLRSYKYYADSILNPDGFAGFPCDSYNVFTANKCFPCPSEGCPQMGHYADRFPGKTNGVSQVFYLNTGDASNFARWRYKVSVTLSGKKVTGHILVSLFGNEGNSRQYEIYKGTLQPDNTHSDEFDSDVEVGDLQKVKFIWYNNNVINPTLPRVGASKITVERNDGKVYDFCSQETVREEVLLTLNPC

[5] = Discrimination ratio of Ki for porcine pancreatic lipase to Ki for Chromobacterium viscosum lipase
[6] = Discrimination ratio of Ki for human pancreatic lipase to Ki for Chromobacterium viscosum lipase
[7] = Inhibition of Chromobacterium viscosum lipase using p-nitrophenylbutyrate as substrate by Dixon plot analysis
[8] = Discrimination ratio of Ki for Thermomyces lanuginosus lipase to Ki for Chromobacterium viscosum lipase
[9] = molecular target: T4, Pancreatic triacylglycerol lipase (Homo sapiens, UniProt P16233); test: (§1) Inhibition of human pancreatic lipase using p-nitrophenylbutyrate as substrate by Dixon plot analysis
T4 sequence (P16233 whole entry): T2 sequence (whole entry)

[10] = molecular target: T2, Pancreatic triacylglycerol lipase (Homo sapiens); test: as §1
[11] = molecular target: T3, Pancreatic triacylglycerol lipase (Sus scrofa); test: (§2) Inhibition of porcine pancreatic lipase using p-nitrophenylbutyrate as substrate by Dixon plot analysis
[12] = molecular target: T5, Pancreatic triacylglycerol lipase (Sus scrofa, UniProt P00591); test: as §2
T5 sequence (P00591 whole entry): T3 sequence (whole entry)

[13] = Solubility of the compound in buffer; format: physicochemical
[14] = system: Chromobacterium viscosum; test: Activity of Chromobacterium viscosum lipase using p-nitrophenylbutyrate as substrate by Lineweaver-Burk plot analysis relative to control
[15] = molecular target: T1, Lipase (Thermomyces lanuginosus); test: Inhibition of Thermomyces lanuginosus lipase using p-nitrophenylbutyrate as substrate by Dixon pot analysis

SMILES | Activity [1] | Activity [2] | Activity [3] | Activity [4] | other results
CCCC(=O)Oc1ccc(NC(=O)CCC(=O)N[C@@H](Cc2ccc(O)cc2)C(=O)N[C@@H](Cc2c[nH]c3ccccc23)C(N)=O)cc1 | Active | Active | Active | Active | –
NC(=O)[C@H](Cc1ccccc1)NC(=O)[C@H](Cc1ccccc1)NC(=O)CCC(=O)Nc1ccc(O)cc1 | – | – | – | – | Ratio Ki [5]: > 160; Ratio Ki [6]: > 160; Ki [7]: 37 µM; Ratio Ki [8]: > 160
CCCCOc1ccc(NC(=O)CCC(=O)N[C@@H](Cc2ccccc2)C(=O)N[C@@H](Cc2ccc(O)cc2)C(N)=O)cc1 | – | – | – | – | Ki [9]: 550 µM; inhibition [10]: inactive; inhibition [11]: inactive; Ki [12]: 160 µM; solubility [13]: soluble
CCCC(=O)Oc1ccc(NC(=O)CCC(=O)N[C@@H](Cc2ccccc2)C(=O)N[C@@H](Cc2ccccc2)C(N)=O)cc1 | Active | Active | Active | Active | Km [1]: 180 µM; Ratio Ki [5]: > 160; inhibition [10]: inactive; Ratio Ki [6]: > 160; fold change (FC) [14]: 20; inhibition [15]: inactive; Ki [7]: 37 µM; inhibition [11]: inactive; Ratio Ki [8]: > 160
CCCCCCCCCCOc1ccc(NC(=O)CCC(=O)N[C@@H](Cc2ccccc2)C(=O)N[C@@H](Cc2ccccc2)C(N)=O)cc1 | – | – | – | – | solubility [13]: Insoluble
CCCC(=O)Oc1ccc(NC(=O)CCC(=O)N[C@@H](Cc2c[nH]c3ccccc23)C(=O)N[C@@H](Cc2ccccc2)C(N)=O)cc1 | Active | Active | Active | Active | –
CCCC(=O)Oc1ccc([N+](=O)[O-])cc1 | – | – | – | – | Km [1]: 3500 µM
CCCC(=O)Oc1ccc(NC(=O)CCC(=O)N[C@@H](Cc2c[nH]c3ccccc23)C(=O)N[C@@H](Cc2c[nH]c3ccccc23)C(N)=O)cc1 | Active | Active | Active | Active | –
CCCCOc1ccc(NC(=O)CCC(=O)N[C@@H](Cc2ccccc2)C(=O)N[C@@H](Cc2ccccc2)C(N)=O)cc1 | – | – | – | – | Ratio Ki [5]: 140; inhibition [10]: inactive; Ratio Ki [6]: 140; fold change (FC) [14]: 20; Ki [7]: 2.6 µM; inhibition [11]: inactive; Ratio Ki [8]: 84
CCCC(=O)Oc1ccc(NC(=O)CCC(=O)N[C@@H](Cc2ccccc2)C(=O)N[C@@H](Cc2ccc(O)cc2)C(N)=O)cc1 | Active | Active | Active | Active | –
CCCCCCCOc1ccc(NC(=O)CCC(=O)N[C@@H](Cc2ccccc2)C(=O)N[C@@H](Cc2ccccc2)C(N)=O)cc1 | – | – | – | – | Ki [7]: 0.37 µM; Ki [12]: 39 µM; solubility [13]: Insoluble
CCCC(=O)Oc1ccc(NC(=O)CCC(=O)N[C@@H](Cc2ccc(O)cc2)C(=O)N[C@@H](Cc2ccccc2)C(N)=O)cc1 | Active | Active | Active | Active | –
CCCC(=O)Oc1ccc(NC(=O)CCC(=O)N[C@@H](Cc2c[nH]c3ccccc23)C(=O)N[C@@H](Cc2ccc(O)cc2)C(N)=O)cc1 | Active | Active | Active | Active | –
CCCC(=O)Oc1ccc(NC(=O)CCC(=O)N[C@@H](Cc2ccccc2)C(=O)N[C@@H](Cc2c[nH]c3ccccc23)C(N)=O)cc1 | Active | Active | Active | Active | –
CCCC(=O)Oc1ccc(NC(=O)CCC(=O)N[C@@H](Cc2ccc(O)cc2)C(=O)N[C@@H](Cc2ccc(O)cc2)C(N)=O)cc1 | Active | Active | Active | Active | –
CCCCOc1ccc(NC(=O)CCC(=O)N[C@@H](Cc2ccc(O)cc2)C(=O)N[C@@H](Cc2ccccc2)C(N)=O)cc1 | – | – | – | – | Ki [9]: 170 µM; inhibition [10]: inactive; inhibition [11]: inactive; Ki [12]: 71 µM
